Assay results as given in patent US8252939B2, “Sulfoximinamide compounds for combating animal pests” (BASF SE, priority 2008, dated 2012).

Assays:
Format in all cases: in vivo
Myzus persicae [1] = experiment: Green peach aphid (Myzus persicae) II, pepper plant leaf dip; details: foliar, 120 h, after 5 days, read-out: mortality in comparison with untreated controls
Excerpt: The active compounds were formulated in 50:50 acetone:water (vol:vol) and 100 ppm Kinetica™ surfactant.
Pepper plants in the 2nd leaf-pair stage (variety ‘California Wonder’) were infested with approximately 40 laboratory-reared aphids by placing infested leaf sections on top of the test plants. The leaf sections were removed after 24 hr. The leaves of the intact plants were dipped into gradient solutions of the test compound and allowed to dry. Test plants were maintained under fluorescent light (24 hour photoperiod) at about 25° C. and about 20-40% relative humidity. Aphid mortality on the treated plants, relative to mortality on check plants, was determined after 5 days.

aphis craccivora = experiment: Cowpea aphid (aphis craccivora), sprayed potted cowpea plants; details: population reduction assessed after 24, 72, and 120 hours, read-out: mortality in comparison with untreated controls
Procedure: The active compound is dissolved at the desired concentration in a mixture of 1:1 (vol:vol) distilled water:acetone. The test solution is prepared at the day of use.
Potted cowpea plants colonized with approximately 100-150 aphids of various stages were sprayed after the pest population has been recorded. Population reduction was assessed after 24, 72, and 120 hours.

Myzus persicae [2] = experiment: Green peach aphid (Myzus persicae) I, systemic, artificial diet under membrane; details: 72 h, after 3 days, read-out: mortality in comparison with untreated controls
Excerpt: For evaluating control of green peach aphid (Myzus persicae) through systemic means the test unit consisted of 96-well-microtiter plates containing liquid artificial diet under an artificial membrane.
The compounds were formulated using a solution containing 75% v/v water and 25% v/v DMSO. Different concentrations of formulated compounds were pipetted into the aphid diet, using a custom built pipetter, at two replications.
After application, 5-8 adult aphids were placed on the artificial membrane inside the microtiter plate wells. The aphids were then allowed to suck on the treated aphid diet and incubated at about 23±1° C. and about 50±5% relative humidity for 3 days. Aphid mortality and fecundity was then visually assessed.

Aphis gossypii = experiment: Cotton aphid (Aphis gossypii) I, cotton cotyledon dip; details: 120 h, after 5 days, read-out: mortality in comparison with untreated controls
Excerpt: The active compounds were formulated in 50:50 (vol:vol) acetone:water and 100 ppm Kinetica™ surfactant.
Cotton plants at the cotyledon stage (one plant per pot) were infested by placing a heavily infested leaf from the main colony on top of each cotyledon. The aphids were allowed to transfer to the host plant overnight, and the leaf used to transfer the aphids was removed. The cotyledons were dipped in the test solution and allowed to dry. After 5 days, mortality counts were made.

Megoura viciae = experiment: Vetch aphid (Megoura viciae) contact or systemic, broad bean leaf disks; details: foliar, 120 h, after 5 days, read-out: mortality in comparison with untreated controls
Procedure: For evaluating control of vetch aphid (Megoura viciae) through contact or systemic means the test unit consisted of 24-well-microtiter plates containing broad bean leaf disks.
The compounds were formulated using a solution containing 75% v/v water and 25% v/v DMSO. Different concentrations of formulated compounds were sprayed onto the leaf disks at 2.5 μl, using a custom built micro atomizer, at two replications. After application, the leaf disks were air-dried and 5-8 adult aphids placed on the leaf disks inside the microtiter plate wells. The aphids were then allowed to suck on the treated leaf disks and incubated at about 23±1° C. and about 50±5% relative humidity for 5 days. Aphid mortality and fecundity was then visually assessed.

Nephotettix virescens = experiment: Rice green leafhopper (Nephotettix virescens), sprayed rice seedlings; details: after 72 hours, read-out: mortality in comparison with untreated controls
Procedure: Rice seedlings were cleaned and washed 24 hours before spraying. The active compounds were formulated in 50:50 acetone:water (vol:vol), and 0.1% vol/vol surfactant (EL 620) was added. Potted rice seedlings were sprayed with 5 ml test solution, air dried, placed in cages and inoculated with 10 adults. Treated rice plants were kept at about 28-29° C. and relative humidity of about 50-60%. Percent mortality was recorded after 72 hours.

dichromothrips corbetti = experiment: Orchid thrips (dichromothrips corbetti) floral-immersion; details: 96 h, after 4 days, read-out: mortality in comparison with untreated controls
Procedure: Dichromothrips corbetti adults used for bioassay were obtained from a colony maintained continuously under laboratory conditions. For testing purposes, the test compound was diluted to a concentration of 300 ppm (wt compound: vol diluent) in a 1:1 mixture of acetone:water (vol:vol), plus 0.01% vol/vol Kinetic® surfactant.
Thrips potency of each compound was evaluated by using a floral-immersion technique. Plastic petri dishes were used as test arenas. All petals of individual, intact orchid flowers were dipped into treatment solution and allowed to dry. Treated flowers were placed into individual petri dishes along with 10-15 adult thrips. The petri dishes were then covered with lids. All test arenas were held under continuous light and a temperature of about 28° C. for duration of the assay. After 4 days, the numbers of live thrips were counted on each flower, and along inner walls of each petri dish. The level of thrips mortality was extrapolated from pre-treatment thrips numbers.

Anthonomus grandis = experiment: Boll weevil (Anthonomus grandis) egg and larval mortality, microtiter plate insect diet; details: 120 h, egg and larval mortality after 5 days, read-out: mortality in comparison with untreated controls
Procedure: For evaluating control of boll weevil (Anthonomus grandis) the test unit consisted of 24-well-microtiter plates containing an insect diet and 20-30 A. grandis eggs.
The compounds were formulated using a solution containing 75% v/v water and 25% v/v DMSO. Different concentrations of formulated compounds were sprayed onto the insect diet at 20 μl, using a custom built micro atomizer, at two replications. After application, microtiter plates were incubated at about 23±1° C. and about 50±5% relative humidity for 5 days. Egg and larval mortality was then visually assessed.

N#CN=S1(=O)CCCN1Cc1ccc(Cl)nc1 (centres unmarked) [compound 1]
> 75%: mortality at 300 ppm (Myzus persicae [1]) | mortality at 300 ppm (aphis craccivora) | mortality at 300 ppm (Myzus persicae [2]) | mortality at 300 ppm (Aphis gossypii) | mortality at 2500 ppm (Megoura viciae) | mortality at 300 ppm (Nephotettix virescens) | mortality at 300 ppm (dichromothrips corbetti) | mortality at 2500 ppm (Anthonomus grandis)

N#CN=S1(=O)CCCN1c1cnc(Cl)c(Cl)c1 (centres unmarked) [compound 12]
> 75%: mortality at 300 ppm (Myzus persicae [1]) | mortality at 300 ppm (aphis craccivora) | mortality at 300 ppm (Aphis gossypii) | mortality at 2500 ppm (Megoura viciae) | mortality at 300 ppm (Nephotettix virescens)

CS(=O)(=NC#N)NCc1ccc(Cl)nc1 (centres unmarked) [compound 90]
> 75%: mortality at 300 ppm (Myzus persicae [1]) | mortality at 300 ppm (aphis craccivora) | mortality at 300 ppm (Aphis gossypii) | mortality at 2500 ppm (Megoura viciae)
